Data taken from US9783527B2, “Indazole ureas and method of use” (AbbVie Inc., priority 2014, dated 2017).

Molecular target: human Nav1.7 (Homo sapiens (Human), UniProt Q15858)
Assay: FRET-based membrane potential assay, recombinant human sodium channel Nav1.7
Assay type: cell-based
Details: HEK293 cells stably expressing recombinant human Nav1.7; depolarization with veratridine (EC80) + scorpion venom
Method: FRET-Based Membrane Potential Assays.
Recombinant, Human Sodium Channel, Nav1.7.
Two days prior to the experiment, frozen HEK293 cells stably expressing recombinant human Nav1.7 were quickly thawed and plated at 25,000 cells/well in growth medium [DMEM (Invitrogen #11965) with 10% HI FBS (Invitrogen #10082), 2 mM glutamine, 100 units/mL penicillin, 0.1 mg/mL streptomycin (PSG, Sigma #G1146), and 500 μg/mL Geneticin (Invitrogen #10131)] in black-walled, clear-bottom 384-well poly-D-lysine-coated assay plates (Greiner Bio-One, Frickenhausen, Germany) and incubated in a humidified 5% CO2 incubator at 37° C. On the day of the assay, medium was removed by aspiration, and cells were washed with assay buffer [HBSS (Invitrogen, Carlsbad, Calif.) containing 20 mM HEPES (Invitrogen, Carlsbad, Calif.)]. After washing, 30 μL assay buffer containing the fluorescent voltage-sensor probe CC2-DMPE (Invitrogen, Carlsbad, Calif.) at 20 μM and 0.01% pluronic F-127 (Invitrogen, Carlsbad, Calif.) was added to the cells. Cells were incubated for 40 minutes at room temperature in the dark. Following the incubation, the cells were washed and 30 μL assay buffer containing 2.5 μM DiSBAC2(3) substrate (Invitrogen, Carlsbad, Calif.) and 0.5 mM VABSC-1 (Invitrogen, Carlsbad, Calif.) was added to the cells. The cells were incubated for 90 minutes at room temperature in the dark. Fluorescence readings were made using a FLIPR®^TETRA (Molecular Devices, Sunnyvale Calif.) equipped with voltage-sensor probe optics. At the start of each experiment the optimal (EC80) concentration of depolarizing agent (veratridine) was determined by testing a dilution curve of assay buffer containing veratridine (Sigma-Aldrich, St. Louis, Mo.) and 1 mg/mL scorpion venom (SVqq, from Leiurus quinquestriatus; Sigma-Aldrich, St. Louis, Mo.). […] Test compounds in the daughter plate were diluted to (˜3×) solutions in assay buffer immediately before assaying. Using the FLIPR®^TETRA, 20 μL of the (3×) compound solutions were first added to the cells, then 20 μL of depolarizing solution (3×EC80 veratridine+SVqq) were added 3 minutes later to activate the channel. Changes in fluorescence were measured at wavelengths of 440-480 nm and 565-625 nm over the course of the experimental run. Membrane depolarization was expressed as a ratio of the maximum F440-480 nm/F565-625 nm reading above average baseline F440-480 nm/F565-625 nm reading. IC50 values were calculated from curve fits of the ratio data using a four-parameter logistic Hill equation (Accelrys Assay Explorer 3.3 Client, Accelrys, San Diego, Calif.) with percent inhibition plotted against compound concentration.

Chain of human Nav1.7 (Q15858 whole entry): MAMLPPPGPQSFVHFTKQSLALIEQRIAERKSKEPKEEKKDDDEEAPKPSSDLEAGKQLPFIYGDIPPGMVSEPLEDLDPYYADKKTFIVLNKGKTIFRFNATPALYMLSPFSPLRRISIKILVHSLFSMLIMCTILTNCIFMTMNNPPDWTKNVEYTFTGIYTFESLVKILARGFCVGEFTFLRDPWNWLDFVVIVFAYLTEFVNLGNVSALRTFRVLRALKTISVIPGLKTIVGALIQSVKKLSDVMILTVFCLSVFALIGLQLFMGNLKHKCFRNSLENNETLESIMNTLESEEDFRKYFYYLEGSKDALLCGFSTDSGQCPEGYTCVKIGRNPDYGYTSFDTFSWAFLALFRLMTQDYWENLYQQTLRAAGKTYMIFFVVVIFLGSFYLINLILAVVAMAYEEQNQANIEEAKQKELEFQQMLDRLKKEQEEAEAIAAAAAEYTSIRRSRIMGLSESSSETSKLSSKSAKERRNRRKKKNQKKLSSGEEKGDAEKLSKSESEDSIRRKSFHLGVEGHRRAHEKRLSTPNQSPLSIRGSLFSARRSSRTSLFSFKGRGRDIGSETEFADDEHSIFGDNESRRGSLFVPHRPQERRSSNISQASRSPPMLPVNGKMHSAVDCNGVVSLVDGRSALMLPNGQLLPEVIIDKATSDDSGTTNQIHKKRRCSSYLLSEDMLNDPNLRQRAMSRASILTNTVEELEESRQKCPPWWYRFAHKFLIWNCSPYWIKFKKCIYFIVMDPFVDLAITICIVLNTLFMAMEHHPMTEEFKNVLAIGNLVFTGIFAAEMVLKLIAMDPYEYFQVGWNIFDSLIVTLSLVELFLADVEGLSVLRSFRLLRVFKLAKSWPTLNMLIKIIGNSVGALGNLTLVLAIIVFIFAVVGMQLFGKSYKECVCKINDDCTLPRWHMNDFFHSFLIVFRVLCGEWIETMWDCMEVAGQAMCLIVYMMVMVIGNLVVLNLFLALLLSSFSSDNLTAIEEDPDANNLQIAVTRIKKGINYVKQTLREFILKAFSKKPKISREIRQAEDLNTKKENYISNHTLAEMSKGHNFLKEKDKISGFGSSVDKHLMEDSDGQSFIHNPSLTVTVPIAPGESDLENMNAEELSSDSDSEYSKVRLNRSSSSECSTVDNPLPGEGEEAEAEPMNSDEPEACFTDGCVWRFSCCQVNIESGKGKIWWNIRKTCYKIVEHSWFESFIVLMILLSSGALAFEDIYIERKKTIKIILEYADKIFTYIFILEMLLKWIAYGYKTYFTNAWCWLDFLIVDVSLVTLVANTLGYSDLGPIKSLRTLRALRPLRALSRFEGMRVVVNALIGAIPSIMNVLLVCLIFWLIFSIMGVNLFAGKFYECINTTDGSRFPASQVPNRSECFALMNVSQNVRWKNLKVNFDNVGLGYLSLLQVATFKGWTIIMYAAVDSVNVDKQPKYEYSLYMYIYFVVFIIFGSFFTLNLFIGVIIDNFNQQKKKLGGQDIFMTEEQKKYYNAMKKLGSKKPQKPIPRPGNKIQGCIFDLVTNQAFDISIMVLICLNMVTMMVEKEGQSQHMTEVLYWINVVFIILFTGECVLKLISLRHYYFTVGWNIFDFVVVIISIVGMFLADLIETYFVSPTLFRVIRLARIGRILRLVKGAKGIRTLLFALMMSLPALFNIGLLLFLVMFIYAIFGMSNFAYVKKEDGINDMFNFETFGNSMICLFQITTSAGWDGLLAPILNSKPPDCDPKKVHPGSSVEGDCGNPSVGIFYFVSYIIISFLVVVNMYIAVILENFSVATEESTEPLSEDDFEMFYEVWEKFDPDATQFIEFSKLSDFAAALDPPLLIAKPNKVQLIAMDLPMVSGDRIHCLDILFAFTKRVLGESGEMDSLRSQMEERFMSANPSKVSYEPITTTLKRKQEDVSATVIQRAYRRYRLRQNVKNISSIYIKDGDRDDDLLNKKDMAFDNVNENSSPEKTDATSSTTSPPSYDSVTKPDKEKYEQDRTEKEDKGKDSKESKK

Structure (SMILES) | IC50
CS(=O)(=O)N1CCN(c2cccc3c2cnn3-c2ccccc2F)C1=O [Example 6, 1-[1-(2-fluorophenyl)-1H-indazol-4-yl]-3-(methylsulfonyl)imidazolidin-2-one] | 1.3 µM
NC(=O)Cn1ccn(-c2cccc3c2cnn3-c2ccccc2F)c1=O [Example 9, 2-{3-[1-(2-fluorophenyl)-1H-indazol-4-yl]-2-oxo-2,3-dihydro-1H-imidazol-1-yl}acetamide] | 0.959 µM
O=C1NCCN1c1cccc2c1cnn2-c1ccccc1F [Example 57, 1-[1-(2-fluorophenyl)-1H-indazol-4-yl]imidazolidin-2-one] | 9.64 µM
NS(=O)(=O)CN1CCN(c2cccc3c2cnn3-c2ccccc2F)C1=O [Example 58, 1-{3-[1-(2-fluorophenyl)-1H-indazol-4-yl]-2-oxoimidazolidin-1-yl}methanesulfonamide] | 2.29 µM
COCCN1CCN(c2cccc3c2cnn3-c2ccccc2F)C1=O [Example 59, 1-[1-(2-fluorophenyl)-1H-indazol-4-yl]-3-(2-methoxyethyl)imidazolidin-2-one] | 1.89 µM
CC(C)(C)C(=O)N1CCN(c2cccc3c2cnn3-c2ccccc2F)C1=O [Example 60, 1-(2,2-dimethylpropanoyl)-3-[1-(2-fluorophenyl)-1H-indazol-4-yl]imidazolidin-2-one] | 1.99 µM
O=C1CC(C(=O)N2CCN(c3cccc4c3cnn4-c3ccccc3F)C2=O)C1 [Example 61, 1-[1-(2-fluorophenyl)-1H-indazol-4-yl]-3-[(3-oxocyclobutyl)carbonyl]imidazolidin-2-one] | 2.24 µM
CNS(=O)(=O)N1CCN(c2cccc3c2cnn3-c2ccccc2F)C1=O [Example 62, 3-[1-(2-fluorophenyl)-1H-indazol-4-yl]-N-methyl-2-oxoimidazolidine-1-sulfonamide] | 1.71 µM
O=C1NCCN1CCN1CCN(c2cccc3c2cnn3-c2ccccc2F)C1=O [Example 63, 1-[1-(2-fluorophenyl)-1H-indazol-4-yl]-3-[2-(2-oxoimidazolidin-1-yl)ethyl]imidazolidin-2-one] | 4.12 µM
CC(C)(O)CN1CCN(c2cccc3c2cnn3-c2ccccc2F)C1=O [Example 64, 1-[1-(2-fluorophenyl)-1H-indazol-4-yl]-3-(2-hydroxy-2-methylpropyl)imidazolidin-2-one] | 9.52 µM
COC[C@H]1CC[C@H](COC)N1C(=O)CN1CCN(c2cccc3c2cnn3-c2ccccc2F)C1=O [Example 65, 1-{2-[(2R,5R)-2,5-bis(methoxymethyl)pyrrolidin-1-yl]-2-oxoethyl}-3-[1-(2-fluorophenyl)-1H-indazol-4-yl]imidazolidin-2-one] | 0.678 µM
O=C(CN1CCN(c2cccc3c2cnn3-c2ccccc2F)C1=O)N1CCN2CCCC2C1 (centres unmarked) [Example 66, 1-[1-(2-fluorophenyl)-1H-indazol-4-yl]-3-[2-(hexahydropyrrolo[1,2-c]pyrazin-2(1H)-yl)-2-oxoethyl]imidazolidin-2-one] | 0.804 µM
CC(C)OC1CN(C(=O)CN2CCN(c3cccc4c3cnn4-c3ccccc3F)C2=O)C1 [Example 67, 1-[1-(2-fluorophenyl)-1H-indazol-4-yl]-3-[2-(3-isopropoxyazetidin-1-yl)-2-oxoethyl]imidazolidin-2-one] | 2.43 µM
CN(CC1CCOCC1)C(=O)CN1CCN(c2cccc3c2cnn3-c2ccccc2F)C1=O [Example 68, 2-{3-[1-(2-fluorophenyl)-1H-indazol-4-yl]-2-oxoimidazolidin-1-yl}-N-methyl-N-(tetrahydro-2H-pyran-4-ylmethyl)acetamide] | 3.57 µM
CC1CN(C(=O)CN2CCN(c3cccc4c3cnn4-c3ccccc3F)C2=O)CC(C)O1 (centres unmarked) [Example 70, 1-[2-(2,6-dimethylmorpholin-4-yl)-2-oxoethyl]-3-[1-(2-fluorophenyl)-1H-indazol-4-yl]imidazolidin-2-one] | 12.2 µM
O=C1N(CC(=O)N2CCCC2CN2CCOCC2)CCN1c1cccc2c1cnn2-c1ccccc1F (centres unmarked) [Example 71, 1-[1-(2-fluorophenyl)-1H-indazol-4-yl]-3-{2-[2-(morpholin-4-ylmethyl)pyrrolidin-1-yl]-2-oxoethyl}imidazolidin-2-one] | 2.34 µM
CN(CCN1CCOCC1)C(=O)CN1CCN(c2cccc3c2cnn3-c2ccccc2F)C1=O [Example 72, 2-{3-[1-(2-fluorophenyl)-1H-indazol-4-yl]-2-oxoimidazolidin-1-yl}-N-methyl-N-[2-(morpholin-4-yl)ethyl]acetamide] | 1.8 µM
CCOCCNC(=O)CN1CCN(c2cccc3c2cnn3-c2ccccc2F)C1=O [Example 74, N-(2-ethoxyethyl)-2-{3-[1-(2-fluorophenyl)-1H-indazol-4-yl]-2-oxoimidazolidin-1-yl}acetamide] | 7.54 µM
CC(C)CCC(=O)N1CCN(c2cccc3c2cnn3-c2ccccc2F)C1=O [Example 76, 1-[1-(2-fluorophenyl)-1H-indazol-4-yl]-3-(4-methylpentanoyl)imidazolidin-2-one] | 2.29 µM
O=C1N(c2cccc3c2cnn3-c2ccccc2F)CCN1S(=O)(=O)C1CCCC1 [Example 77, 1-(cyclopentylsulfonyl)-3-[1-(2-fluorophenyl)-1H-indazol-4-yl]imidazolidin-2-one] | 2.79 µM
O=C1N(c2cccc3c2cnn3-c2ccccc2F)CCN1S(=O)(=O)C1CCCCC1 [Example 78, 1-(cyclohexylsulfonyl)-3-[1-(2-fluorophenyl)-1H-indazol-4-yl]imidazolidin-2-one] | 2.94 µM
O=C1N(c2cccc3c2cnn3-c2ccccc2F)CCN1S(=O)(=O)c1cccs1 [Example 79, 1-[1-(2-fluorophenyl)-1H-indazol-4-yl]-3-(2-thienylsulfonyl)imidazolidin-2-one] | 2.27 µM
CC(C)CS(=O)(=O)N1CCN(c2cccc3c2cnn3-c2ccccc2F)C1=O [Example 80, 1-[1-(2-fluorophenyl)-1H-indazol-4-yl]-3-(isobutylsulfonyl)imidazolidin-2-one] | 2.38 µM
CCCS(=O)(=O)N1CCN(c2cccc3c2cnn3-c2ccccc2F)C1=O [Example 81, 1-[1-(2-fluorophenyl)-1H-indazol-4-yl]-3-(propylsulfonyl)imidazolidin-2-one] | 4.08 µM
CC(C)S(=O)(=O)N1CCN(c2cccc3c2cnn3-c2ccccc2F)C1=O [Example 82, 1-[1-(2-fluorophenyl)-1H-indazol-4-yl]-3-(isopropylsulfonyl)imidazolidin-2-one] | 2.46 µM
CCS(=O)(=O)N1CCN(c2cccc3c2cnn3-c2ccccc2F)C1=O [Example 83, 1-(ethylsulfonyl)-3-[1-(2-fluorophenyl)-1H-indazol-4-yl]imidazolidin-2-one] | 20 µM
CC(C)(O)[C@H]1CCN(C(=O)CN2CCN(c3cccc4c3cnn4-c3ccccc3F)C2=O)C1 [Example 85, 1-[1-(2-fluorophenyl)-1H-indazol-4-yl]-3-{2-[(3S)-3-(2-hydroxypropan-2-yl)pyrrolidin-1-yl]-2-oxoethyl}imidazolidin-2-one] | 12.3 µM
O=C(CN1CCN(c2cccc3c2cnn3-c2ccccc2F)C1=O)N1CCC(F)(F)C1 [Example 86, 1-[2-(3,3-difluoropyrrolidin-1-yl)-2-oxoethyl]-3-[1-(2-fluorophenyl)-1H-indazol-4-yl]imidazolidin-2-one] | 1.96 µM
O=C1N(Cc2ccc(C(F)(F)F)cn2)CCN1c1cccc2c1cnn2-c1ccccc1F [Example 89, 1-[1-(2-fluorophenyl)-1H-indazol-4-yl]-3-{[5-(trifluoromethyl)pyridin-2-yl]methyl}imidazolidin-2-one] | 10.6 µM
